Measured values from patent publication US4877774A, “Administration of steroid hormones” (The United States of America as represented by the …, priority 1987, dated 1989).
In brackets after ≈: the same amount, converted by molar mass. Several values for one entry are separate records, joined by “and”; a condition that tells them apart may be missing. Equal entries are not always repeated.

What was measured:
[1] = human trial; cited from earlier work
[2] = phase-solubility of testosterone-gamma-cyclodextrin system in water, 25° C.
Method: The appropriate proportions in the mixture can be determined by examining the descending curvature of the Bs-type phase solubility of FIG. 1.
The appropriate mixture was determined by examining the descending curvature of the Bs-type phase solubility diagram, as shown in FIG. 1. […] The complex, which precipitated as a microcrystalline powder, was removed by filtration and dried under vacuum at room temperature for 24 hours.

physchem = settings: water
Method: The dissolution rates of testosterone alone or its release from complexes of interest were measured and compared with published data.

amylases of human saliva = settings: cited from earlier work

## OC[C@H]1O[C@@H]2O[C@H]3[C@H](O)[C@@H](O)[C@@H](O[C@H]4[C@H](O)[C@@H](O)[C@@H](O[C@H]5[C@H](O)[C@@H](O)[C@@H](O[C@H]6[C@H](O)[C@@H](O)[C@@H](O[C@H]7[C@H](O)[C@@H](O)[C@@H](O[C@H]8[C@H](O)[C@@H](O)[C@@H](O[C@H]1[C@H](O)[C@H]2O)O[C@@H]8CO)O[C@@H]7CO)O[C@@H]6CO)O[C@@H]5CO)O[C@@H]4CO)O[C@@H]3CO [beta-cyclodextrin]
[1]
  administration of testosterone, estradiol, or progesterone: marginal

## C[C@]12CC[C@H]3[C@@H](CCC4=CC(=O)CC[C@@]43C)[C@@H]1CC[C@@H]2O [testosterone]
[2]; concentration of testosterone in water (without cyclodextrin), 25° C.
  solubility: 130 µM and 37 µg/mL
[2]; gamma-cyclodextrin, limit value of testosterone concentration, with gamma-cyclodextrin, 25° C.
  solubility: 1210 µM and 350 µg/mL
[2]; gamma-cyclodextrin, maximal solubilization of testosterone, with gamma-cyclodextrin, 25° C.
  solubility: 8700 µM and 2500 µg/mL
physchem
  solubility: 37 µg/mL (≈ 128 µM)

## OC[C@H]1O[C@@H]2O[C@H]3[C@H](O)[C@@H](O)[C@@H](O[C@H]4[C@H](O)[C@@H](O)[C@@H](O[C@H]5[C@H](O)[C@@H](O)[C@@H](O[C@H]6[C@H](O)[C@@H](O)[C@@H](O[C@H]7[C@H](O)[C@@H](O)[C@@H](O[C@H]8[C@H](O)[C@@H](O)[C@@H](O[C@H]9[C@H](O)[C@@H](O)[C@@H](O[C@H]1[C@H](O)[C@H]2O)O[C@@H]9CO)O[C@@H]8CO)O[C@@H]7CO)O[C@@H]6CO)O[C@@H]5CO)O[C@@H]4CO)O[C@@H]3CO [gamma-cyclodextrin]
Amylases of human saliva
  susceptibility to the amylases of human saliva: susceptible
[2]; water
  solubility: 168 mM (≈ 218 mg/mL)
